From ChEMBL document CHEMBL5104180, “Design, Synthesis, and Evaluation of New Sugar-Substituted Imidazole Derivatives as Selective c-MYC Transcription Repressors Targeting the Promoter G-Quadruplex” (J Med Chem, 2022)

Legend:
MDA-MB-231 = test: Cytotoxicity against human MDA-MB-231 cells assessed as reduction in cell viability measured after 48 hrs by MTT assay; type: functional, cell-based; conditions: MDA-MB-231, 48 h
[1] = Binding affinity to G-rich HRAS DNA (unknown origin) assessed as binding constant by SPR analysis
[2] = Binding affinity to G-rich NRAS RNA (unknown origin) assessed as binding constant by SPR analysis
Quadruplex DNA [3] = test: Binding affinity to c-MYC G4- quadruplex DNA Pu22 (unknown origin) assessed as binding constant by SPR analysis; type: nucleic-acid assay
[4] = Binding affinity to Hairpin DNA (unknown origin) assessed as binding constant by SPR analysis
[5] = Binding affinity to G-rich KRAS DNA (unknown origin) assessed as binding constant by SPR analysis
RNA = test: Binding affinity to NRAS RNA mutant (unknown origin) assessed as binding constant by SPR analysis
Quadruplex DNA [6] = test: Stabilization of c-MYC G4 quadruplex DNA Pu22 (unknown origin) assessed as change in melting temperature at 2 uM by CD spectroscopy; type: nucleic-acid assay
HepG2 = test: Cytotoxicity against human HepG2 cells assessed as reduction in cell viability measured after 48 hrs by MTT assay; type: functional, cell-based; conditions: HepG2, 48 h
[7] = Binding affinity to human G-rich Htg22 DNA assessed as binding constant by SPR analysis
Quadruplex DNA [8] = test: Binding affinity to c-MYC G4 quadruplex DNA Pu22 (unknown origin) assessed as binding constant by SPR analysis; type: nucleic-acid assay

Kd [1] [µM]	Kd [2] [µM]	Kd (Quadruplex DNA [3]) [µM]	Kd [4] [µM]	Kd [5] [µM]	Kd (RNA) [µM]	ΔTm (Quadruplex DNA [6]) [°C]	Kd [7] [µM]	Kd (Quadruplex DNA [8]) [µM]	SMILES	IC50 (MDA-MB-231) [µM]	IC50 (HepG2) [µM]
14.3	> 20	1.8	> 20	15	> 20	16.7	> 20	> 20	CCn1c2ccccc2c2cc(-c3nc(-c4ccc(N5CCN(C)CC5)cc4)c(-c4ccc(N5CCN(C)CC5)cc4)n3-c3ccc(OCCCO[C@@H]4O[C@H](CO)[C@@H](O)[C@H](O)[C@H]4O)cc3)ccc21 (single isomer, unassigned)	> 32	> 32
16.6	> 20	1.4	> 20	> 20	> 20	16.9	> 20	> 20	CCn1c2ccccc2c2cc(-c3nc(-c4ccc(N5CCN(C)CC5)cc4)c(-c4ccc(N5CCN(C)CC5)cc4)n3-c3ccc(OCCCO[C@@H]4O[C@H](CO)[C@H](O)[C@H](O)[C@H]4O)cc3)ccc21 (single isomer, unassigned)	> 32	> 32
14.4	16.4	2	> 20	18.2	> 20	16.2	> 20	> 20	CCn1c2ccccc2c2cc(-c3nc(-c4ccc(N5CCN(C)CC5)cc4)c(-c4ccc(N5CCN(C)CC5)cc4)n3-c3ccc(OCCOCCO[C@@H]4O[C@H](CO)[C@H](O)[C@H](O)[C@H]4O)cc3)ccc21 (single isomer, unassigned)	> 32	> 32

Further lines, the molecule ahead of its results:

SMILES	Kd [1] [µM]	Kd [2] [µM]	Kd (Quadruplex DNA [3]) [µM]	Kd [4] [µM]	Kd [5] [µM]	Kd (RNA) [µM]	ΔTm (Quadruplex DNA [6]) [°C]	Kd [7] [µM]	Kd (Quadruplex DNA [8]) [µM]	IC50 (MDA-MB-231) [µM]	IC50 (HepG2) [µM]
CCn1c2ccccc2c2cc(-c3nc(-c4ccc(N5CCN(C)CC5)cc4)c(-c4ccc(N5CCN(C)CC5)cc4)n3-c3ccc(OCCOCCO[C@@H]4O[C@H](CO)[C@@H](O)[C@H](O)[C@H]4NC(=O)C(F)(F)F)cc3)ccc21 (single isomer, unassigned)	19.9	16.1	4.1	> 20	17.9	> 20	16.3	> 20	> 20	> 32	> 32
CCn1c2ccccc2c2cc(-c3nc(-c4ccc(N5CCN(C)CC5)cc4)c(-c4ccc(N5CCN(Cc6cn(CCOCCO[C@@H]7O[C@H](COC(C)=O)[C@@H](OC(C)=O)[C@H](OC(C)=O)[C@H]7OC(C)=O)nn6)CC5)cc4)[nH]3)ccc21 (single isomer, unassigned)	8.2	> 20	1	> 20	17.2	> 20	17.8	> 20	> 20	> 32	> 32
CCn1c2ccccc2c2cc(-c3nc(-c4ccc(N5CCN(C)CC5)cc4)c(-c4ccc(N5CCN(Cc6cn([C@@H]7O[C@H](CO)[C@H](O)[C@H](O)[C@H]7O)nn6)CC5)cc4)[nH]3)ccc21 (single isomer, unassigned)	2.7	9.9	1.6	> 20	5.8	> 20	18.4	> 20	> 20		
COc1ccc(-n2c(-c3ccc4c(c3)c3ccccc3n4Cc3cn(CCOCCO[C@@H]4O[C@H](CO)[C@@H](O)[C@H](O)[C@H]4O)nn3)nc(-c3ccc(N4CCN(C)CC4)cc3)c2-c2ccc(N3CCN(C)CC3)cc2)cc1 (single isomer, unassigned)	15.5	19.2	2.2	> 20	17.8	> 20	17.7	> 20	> 20	> 32	> 32
